# Measured values reported in ChEMBL document CHEMBL2417425, “Design and synthesis of positional isomers of 5 and 6-bromo-1-[(phenyl)sulfonyl]-2-[(4-nitrophenoxy)methyl]-1H-benzimidazoles as possible antimicrobial and antitubercular agents” (2013).
# Assays:
# Type in all cases: functional
# [1] = system: Mycobacterium tuberculosis; assay: Antimycobacterial activity against Mycobacterium tuberculosis H37Rv assessed as growth inhibition at 0.3125 to 5 ug/mL by resazurin assay
# [2] = system: Mycolicibacterium fortuitum; assay: Antimycobacterial activity against Mycobacterium fortuitum ATCC 19542 assessed as growth inhibition at 1 to 100 ug/mL by resazurin assay
# [3] = system: Mycolicibacterium smegmatis; assay: Antimycobacterial activity against Mycobacterium smegmatis ATCC 19420 assessed as growth inhibition at 1 to 100 ug/mL by resazurin assay
# [4] = system: Mycobacterium tuberculosis; assay: Antimycobacterial activity against Mycobacterium tuberculosis H37Rv assessed as growth inhibition at 1 to 100 ug/mL by resazurin assay; details: for MIC: Mycobacterium tuberculosis, H37Rv
# Rhizopus = assay: Antifungal activity against Rhizopus sp. assessed as growth inhibition by serial dilution method
# Aspergillus flavus = assay: Antifungal activity against Aspergillus flavus assessed as growth inhibition by serial dilution method
# Candida albicans = assay: Antifungal activity against Candida albicans assessed as growth inhibition by serial dilution method
# Klebsiella pneumoniae = assay: Antibacterial activity against Klebsiella pneumoniae assessed as growth inhibition by serial dilution method
# Escherichia coli = assay: Antibacterial activity against Escherichia coli assessed as growth inhibition by serial dilution method
# Staphylococcus aureus = assay: Antibacterial activity against Staphylococcus aureus assessed as growth inhibition by serial dilution method
# [5] = system: Mycolicibacterium fortuitum; assay: Antimycobacterial activity against Mycobacterium fortuitum ATCC 19542 assessed as growth inhibition at 0.3125 to 5 ug/mL by resazurin assay
# [6] = system: Mycolicibacterium smegmatis; assay: Antimycobacterial activity against Mycobacterium smegmatis ATCC 19420 assessed as growth inhibition at 0.3125 to 5 ug/mL by resazurin assay
SMILES,MIC [1],MIC [2],MIC [3],growth inhibition (GI) [4],MIC [4],MIC (Rhizopus),MIC (Aspergillus flavus),MIC (Candida albicans),MIC (Klebsiella pneumoniae),MIC (Escherichia coli),MIC (Staphylococcus aureus),MIC [5],MIC [6]
N#Cc1cccc(S(=O)(=O)n2c(COc3ccc([N+](=O)[O-])cc3)nc3cc(Br)ccc32)c1,5 µg/mL,> 100 µg/mL,10 µg/mL,<90%,> 100 µg/mL,128 µg/mL,128 µg/mL,64 µg/mL,128 µg/mL,64 µg/mL,128 µg/mL,,
Cc1c(F)cccc1S(=O)(=O)n1c(COc2ccc([N+](=O)[O-])cc2)nc2cc(Br)ccc21,10 µg/mL,10 µg/mL,> 100 µg/mL,<90%,> 100 µg/mL,256 µg/mL,256 µg/mL,128 µg/mL,128 µg/mL,> 256 µg/mL,64 µg/mL,10 µg/mL,10 µg/mL
Cc1cccc(S(=O)(=O)n2c(COc3ccc([N+](=O)[O-])cc3)nc3cc(Br)ccc32)c1,1.25 µg/mL,10 µg/mL,10 µg/mL,90%,> 100 µg/mL,128 µg/mL,> 256 µg/mL,64 µg/mL,> 256 µg/mL,64 µg/mL,128 µg/mL,10 µg/mL,
COc1ccc(OC)c(S(=O)(=O)n2c(COc3ccc([N+](=O)[O-])cc3)nc3ccc(Br)cc32)c1,5 µg/mL,> 100 µg/mL,10 µg/mL,<90%,10 µg/mL,128 µg/mL,256 µg/mL,> 256 µg/mL,128 µg/mL,> 256 µg/mL,256 µg/mL,,10 µg/mL
O=[N+]([O-])c1ccc(OCc2nc3ccc(Br)cc3n2S(=O)(=O)c2cc(F)ccc2F)cc1,2.5 µg/mL,10 µg/mL,10 µg/mL,<90%,10 µg/mL,256 µg/mL,64 µg/mL,128 µg/mL,> 256 µg/mL,64 µg/mL,128 µg/mL,10 µg/mL,10 µg/mL
O=[N+]([O-])c1ccc(OCc2nc3ccc(Br)cc3n2S(=O)(=O)c2ccc(Cl)cc2Cl)cc1,,> 100 µg/mL,> 100 µg/mL,0%,> 100 µg/mL,> 256 µg/mL,128 µg/mL,> 256 µg/mL,256 µg/mL,> 256 µg/mL,64 µg/mL,,
O=[N+]([O-])c1ccc(OCc2nc3ccc(Br)cc3n2S(=O)(=O)c2cc(Cl)ccc2Cl)cc1,10 µg/mL,10 µg/mL,> 100 µg/mL,90%,10 µg/mL,128 µg/mL,256 µg/mL,> 256 µg/mL,128 µg/mL,128 µg/mL,64 µg/mL,10 µg/mL,
N#Cc1cccc(S(=O)(=O)n2c(COc3ccc([N+](=O)[O-])cc3)nc3ccc(Br)cc32)c1,5 µg/mL,> 100 µg/mL,10 µg/mL,<90%,> 100 µg/mL,128 µg/mL,> 256 µg/mL,128 µg/mL,256 µg/mL,> 256 µg/mL,256 µg/mL,,
Cc1c(F)cccc1S(=O)(=O)n1c(COc2ccc([N+](=O)[O-])cc2)nc2ccc(Br)cc21,1.25 µg/mL,> 100 µg/mL,> 100 µg/mL,<90%,10 µg/mL,256 µg/mL,> 256 µg/mL,256 µg/mL,> 256 µg/mL,256 µg/mL,> 256 µg/mL,,
O=[N+]([O-])c1ccc(OCc2nc3ccc(Br)cc3n2S(=O)(=O)c2ccccc2Cl)cc1,,> 100 µg/mL,> 100 µg/mL,0%,> 100 µg/mL,> 256 µg/mL,> 256 µg/mL,128 µg/mL,256 µg/mL,> 256 µg/mL,128 µg/mL,,
COc1ccc(S(=O)(=O)n2c(COc3ccc([N+](=O)[O-])cc3)nc3ccc(Br)cc32)c(OC)c1,2.5 µg/mL,> 100 µg/mL,10 µg/mL,<90%,10 µg/mL,128 µg/mL,256 µg/mL,> 256 µg/mL,128 µg/mL,256 µg/mL,> 256 µg/mL,,2.5 µg/mL
Cc1cccc(S(=O)(=O)n2c(COc3ccc([N+](=O)[O-])cc3)nc3ccc(Br)cc32)c1,5 µg/mL,> 100 µg/mL,10 µg/mL,<90%,> 100 µg/mL,> 256 µg/mL,> 256 µg/mL,256 µg/mL,> 256 µg/mL,128 µg/mL,> 256 µg/mL,,
Nc1ccc(OCc2nc3cc(Br)ccc3[nH]2)cc1,5 µg/mL,> 100 µg/mL,10 µg/mL,<90%,10 µg/mL,256 µg/mL,128 µg/mL,64 µg/mL,128 µg/mL,128 µg/mL,64 µg/mL,,10 µg/mL
O=[N+]([O-])c1ccc(OCc2nc3cc(Br)ccc3n2S(=O)(=O)c2ccc(Cl)cc2Cl)cc1,5 µg/mL,> 100 µg/mL,10 µg/mL,<90%,> 100 µg/mL,128 µg/mL,64 µg/mL,128 µg/mL,64 µg/mL,4 µg/mL,8 µg/mL,,
C[C@@H]1[C@H](O)[C@@H](C)/C=C/C=C/C=C/C=C/C=C/C=C/C=C/[C@H](O[C@@H]2O[C@H](C)[C@@H](O)[C@H](N)[C@@H]2O)C[C@@H]2O[C@](O)(C[C@@H](O)C[C@@H](O)[C@H](O)CC[C@@H](O)C[C@@H](O)CC(=O)O[C@H]1C)C[C@H](O)[C@H]2C(=O)O [AMPHOTERICIN B],,,,,,16 µg/mL,8 µg/mL,8 µg/mL,,,,,
O=C(O)c1cn(C2CC2)c2cc(N3CCNCC3)c(F)cc2c1=O [CIPROFLOXACIN],,,,,,,,,16 µg/mL,,8 µg/mL,,
NNC(=O)c1ccncc1 [ISONIAZID],0.7 µg/mL,12.5 µg/mL,50 µg/mL,95%,0.7 µg/mL,,,,,,,12.5 µg/mL,50 µg/mL
CO[C@H]1/C=C/O[C@@]2(C)Oc3c(C)c(O)c4c(O)c(c(/C=N/N5CCN(C)CC5)c(O)c4c3C2=O)NC(=O)/C(C)=C\C=C\[C@H](C)[C@H](O)[C@@H](C)[C@@H](O)[C@@H](C)[C@H](OC(C)=O)[C@@H]1C [RIFAMPIN],0.5 µg/mL,1.5 µg/mL,1.5 µg/mL,95%,0.5 µg/mL,,,,,,,1.5 µg/mL,1.5 µg/mL
